The values below are quoted from earlier work in PMC7576618 (British Journal of Clinical Pharmacology, 2020).

By EC50 is commonly meant the midpoint of the concentration-response curve.

Series [1] concerns the target mGlu2 receptor. As to conditions: read-out: in vitro EC50 for mGlu2 receptor; cited from earlier work.
The target in series [2] is mGlu2 receptor. The note with it: read-out: EC50 (assay system used by Eli Lilly); cited from earlier work.
The conditions of series [3]: active compound LY2812223; cited from earlier work.
For series [4] the following is noted: humans; cited from earlier work.

Molecules are shown by their SMILES. Like-named read-outs stand apart in the source and are kept apart here.

On to `N[C@@]1(C(=O)O)CC[C@H]2[C@H](C(=O)O)[C@H]21` [LY354740, (+)‐2‐aminobicyclo[3.1.0]hexane‐2,6‐dicarboxylic acid], for which the EC50 at mGlu2 receptor [1] is 0.0183 µM; at mGlu2 receptor [2] it was 0.0051 µM. In the case of `C[C@H](N)C(=O)N[C@@]1(C(=O)O)C[C@@H](Sc2nnc[nH]2)[C@H]2[C@H](C(=O)O)[C@H]21` [LY2979165], the “plasma levels of prodrug relative to its active compound” value in series [3] is reported as < 1%. In the case of `CSCC[C@H](N)C(=O)N[C@@]1(C(=O)O)CS(=O)(=O)[C@H]2[C@H](C(=O)O)[C@H]21` [LY2140023], in series [4], the “plasma exposure of the prodrug relative to that of LY404039” value is recorded as “approximately 30%”.
